Assay [1] concerns EOC cells. As to the kind of experiment: Flow cytometry with Hoechst and Propidium iodide staining (DNA fragmentation). As to conditions: Compound 1 10 g/ml (as printed, FIG. 1B legend), 24 h. In kind it is cell-based, human. The text has this: Cell lines and culture conditions. Established human EOC cell lines, A2780 and A2780/CP70 (gifts from Dr. T C Hamilton) (Behrens et al, 1997) were propagated in RPMI plus 10% fetal bovine serum (Gemini Bio-Products, Woodland, Calif.). Primary EOC cell lines were isolated from malignant ovarian ascites or explanted from ovarian tumors and cultured as previously described (Alvero et al, 2006). Purity of the EOC cells was 100% as determined by immuno-staining for cytokeratin 7 antigen. All cell lines were grown at 37° C. in a 5% CO2 atmosphere.
Flow cytometry with Hoechst and Propidium iodide staining. After treatment, cells were trypsinized, washed twice with PBS, and resuspended at 1×10^6 cells/ml. Cells were then stained with 5 μg/ml Hoechst 33342 (Invitrogen-Molecular Probes, Carlsbad, Calif.) and 1 μg/ml Propidium iodide (Sigma Aldrich) and incubated for 15 mins in the dark. Afterwards, data was acquired using BD LSR II System and analyzed using FloJo FACS analysis software (Tree Star, Inc., Ashland, Oreg.).
A general note: In flow cytometry, cells or beads pass a laser one at a time.

Assay [2] relates to XIAP. As to the kind of experiment: Western blot of EOC whole cell lysates for XIAP. Type of assay: cell-based, human. As to conditions: EOC cells, 10 g/ml (as printed, FIG. 2 legend). The text has this:
Protein preparation and cellular fractionation. After drug treatment, protein was extracted and measured as previously described (Alvero et al, 2006). For separation of the cytoplasmic and mitochondrial fractions, cell pellets were processed using the ApoAlert™ Cell Fractionation Kit (BD Biosciences, San Jose, Calif.) according to the manufacturer's instructions. For separation of the cytoplasmic and nuclear fractions, pellets were processed using NE-PER Nuclear and Cytoplasmic Extraction (Pierce Biotechnology, Inc., Rockford, Ill.).
SDS-PAGE and Western blots. Cell lysates (20 μg protein) were denatured in sample buffer (2.5% SDS, 10% glycerol, 5% β-mercapto-ethanol, 0.15 M Tris (pH=6.8) and 0.01% bromophenol blue) and subjected to 12% SDS-PAGE as previously described (Kamsteeg et al, 2003). […]
On the technique in general: In western blotting, separated proteins are transferred to a membrane and probed.

Assay [3] has as its system MIAPaCa-2 cells. As to the kind of experiment: Western blot analysis of apoptosis regulatory proteins, p21 and p53, MIAPaCa-2. In kind it is cell-based, human. An excerpt:
Cells. Human pancreatic cell lines HPAC, MIAPaCa-2 and PANC-1 were obtained from the ATCC. (Manassas, Va.). The cells were maintained in DMEM media with Gln and high glucose (Mediatech, Manassas, Va.) with 10% fetal bovine serum (FBS, HyClone, Logan, Utah) and pencillin/streptomycin.
Antibodies. Antibodies utilised in this study specific to p53 and, p21 were obtained from (Calbiochem, EMD, San Diego, Calif.), Caspase 9, XIAP, COX IV, Bcl2 and Akt (Cell Signaling Technology, Danvers, Mass.), Caspase 2, Cytochrome c and Bid (BD Pharmingen, San Diego, Calif.). GAPDH (RDI, Concord, Mass.) or β-actin (Sigma, St. Louis, Mo.) was used as a housekeeping gene to standardize the protein loading on the gels and blots.
Western blot analysis. Cells were seeded on 100 mm tissue culture plates and grown overnight to ˜90% confluence. Cells were then treated with the drug combinations for indicated time points. After the final treatment step, the cells were lysed with 500 μL of a lysis buffer containing 1% Nonidet P-40, 0.1% SDS, 0.5% deoxycholate, 150 mM NaCl, 50 mM Tris-HCl pH7.5, 1 mM EDTA, 1 mM PMSF and protease inhibitors (Roche) on ice for 30 minutes. Cell lysates were harvested with a sterile cell scraper and centrifuged at 15,000×g for 15 minutes to remove cell debris. Protein was assayed by the BCA method (Pierce) and 50 μg aliquots were separated on 12%, T, 2.6%C SDS-PAGE gels. Proteins were electrophoretically transferred to PVDF membranes (Immobilon P, Millipore, Billerica, Mass.) by the wet transfer method. These membranes were probed with specific antibodies and with anti-GAPDH which was used as the housekeeping gene to standardize the protein loading. The blots were developed on X-ray films using HRP-conjugated secondary antibodies (Southern Biotech, Birmingham, Ala.) and a chemiluminescent substrate (ECL, Amersham, N.Y.).

The test system of assay [4] is MIAPaCa-2. As to the kind of experiment: MIAPaCa-2 pancreatic cancer xenograft. In kind it is in vivo, Balb/c nude mice. The note with it: MIAPaCa-2 model. The protocol:
For xenograft studies, five week old male Balb/c nude mice were maintained on an isoflavone-free diet to remove background isoflavone levels contributed by standard feed. On the day of inoculation a suspension of MIAPaCa2 or HPAC cells was prepared in DMEM (-FBS), chilled on ice and then an equal volume of matrigel (BD) was added. Mice were inoculated subcutaneously with 3×10^6 MIAPaCa2 or HPAC cells bilaterally (midway between the axillary and inguinal region) along the dorsal surface, ensuring that cells to be injected were growing at mid-end log phase. Tumor growth was monitored over 10-15 days. Compound 10 was given orally by gavage in 1% carboxy methyl cellulose (CMC) as a vehicle. Gemcitabine was injected intraperiponeally in PBS. In combination groups animals were first dosed with Compound 10 and then dosed with gemcitabine using the respective administration schedule, dosage and route of delivery stated.

The structures appear in SMILES notation.

As to `COc1ccc(C2c3ccc(O)c(C)c3OCC2c2ccc(O)cc2)cc1` (stereo not shown) [Compound 1, 3-(4-hydroxyphenyl)-4-(4-methoxyphenyl)-8-methylchroman-7-ol], the “cells staining positively for both Hoechst and PI (fragmented DNA)” value in assay [1] is reported as 95%. Also, the “status of XIAP” value in assay [2] is reported as “no change”.

`COc1ccc(C2c3ccc(O)cc3OCC2c2ccc(O)cc2)cc1` (stereo not shown) [Compound 10, 3-(4-hydroxyphenyl)-4-(4-methoxyphenyl)chroman-7-ol]: the “expression of p53” value in assay [3] (MIAPaCa-2 (mutant p53), 10 μM) was “unaffected”. In addition, in assay [3] (MIAPaCa-2, 10 μM), the “cleavage of Caspase 3” value is recorded as “did not cause significant cleavage”, the “full-length Caspase 2 (48Kd) cleavage” value is listed as “cleaved”, the “levels of Bcl2” value was “lowered” and the p21 result is on record as “elevated”. In addition, in assay [3] (MIAPaCa-2, 10 μM, early timepoint (4 hr)), the “total Akt” value is on record as “reduced”. The Bid cleavage entry in assay [3] (MIAPaCa-2, 10 μM, over time) is on record as “induced Bid cleavage over time”. Moreover, in assay [3] (MIAPaCa-2, 10 μM, time course 0-48 hrs), the “cleaved caspase 9 (17kd)” value is listed as “initial drop in cleaved caspase 9 (17kd) followed by an increase after 16 hr”. Besides, the “level of XIAP” value in assay [3] (MIAPaCa-2, 10 μM, degradation more pronounced than in HPAC) was “reduced”. The “% T/C (mean terminal tumor burden)” value in assay [4] (Compound 10 100 mg/kg oral qd×12, gemcitabine 20 mg/kg q3d×4, alone or combined) is given as 94%. Besides, the “rate of tumor proliferation” value in assay [4] (oral 100 mg/kg, qd×12, vs vehicle control, level similar to gemcitabine) was “retarded”.

These data come from patent US20100130598A1, “METHODS FOR INDUCING PROGRAMMED CELL DEATH” (Novogen Research Pty Ltd., priority 2008, published 2010).
